Assay results published in patent US20160158368A1, “METHODS AND COMPOSITIONS FOR THE TREATMENT OF HISTIOCYTOSIS” (Therapure Biopharma Inc., priority 2014, published 2016).

Legend:
SU-DHL-1 cells = assay: PrestoBlue cell viability assay, SU-DHL-1 cells; type: cell-based, human; details: for growth inhibition: SU-DHL-1 cells
U937 cells = assay: PrestoBlue cell viability assay, U937 cells; type: cell-based, human; details: for growth inhibition: U937 cells

Row | Compound | growth inhibition (SU-DHL-1 cells) | growth inhibition (U937 cells) | IC50 (SU-DHL-1 cells; Homo sapiens, SU-DHL-1, 48 hours, cell viability, n=3, read-out: average half maximal inhibitory concentration (IC50)) [nM] | IC50 (U937 cells; Homo sapiens, U-937, U937, 48 hours, cell viability, n=3, read-out: average half maximal inhibitory concentration (IC50)) [nM]
1 | hemoglobin: human hemoglobin, a CD163 ligand, unconjugated control | not | not |  | 
2 | Nc1nc(Cl)nc2c1ncn2C1CC(O)C(CO)O1 (stereo not drawn) [cladribine, 5-(6-amino-2-chloro-purin-9-yl)-2-(hydroxymethyl)oxolan-3-ol] | dose-dependent growth inhibition | dose-dependent growth inhibition | 204 | 42
